# Reference: ChEMBL document CHEMBL2413072, “Synthesis and in vitro anticancer studies of novel C-2 arylidene congeners of lantadenes” (2013)
# Columns and labels:
# Format in all cases: functional
# [1] = system: SR; test: Growth inhibition of human SR cells assessed as cell growth at 10^-8 M by sulforhodamine B assay; conditions: read-out: Activity
# [2] = system: HOP-62; test: Growth inhibition of human HOP62 cells assessed as cell growth at 10^-7 M by sulforhodamine B assay; conditions: read-out: Activity
# [3] = system: OVCAR-4; test: Growth inhibition of human OVCAR4 cells assessed as cell growth at 10^-4 M by sulforhodamine B assay; conditions: read-out: Activity
# [4] = system: T47D; test: Growth inhibition of human T47D cells assessed as cell growth at 10^-8 M by sulforhodamine B assay; conditions: read-out: Activity
# [5] = system: SNB-19; test: Growth inhibition of human SNB19 cells by sulforhodamine B assay
# [6] = system: A498; test: Growth inhibition of human A498 cells assessed as cell growth at 10^-7 M by sulforhodamine B assay; conditions: read-out: Activity
# [7] = system: SF-295; test: Growth inhibition of human SF295 cells assessed as cell growth at 10^-7 M by sulforhodamine B assay; conditions: read-out: Activity
# [8] = system: NCI-H226; test: Growth inhibition of human NCI-H226 cells assessed as cell growth at 10^-4 M by sulforhodamine B assay; conditions: read-out: Activity
# [9] = system: A498; test: Growth inhibition of human A498 cells by sulforhodamine B assay
# [10] = Growth inhibition of human HCC2998 cells assessed as cell growth at 10^-8 M by sulforhodamine B assay; conditions: HCC 2998, read-out: Activity
# [11] = system: CAKI-1; test: Growth inhibition of human CAKI-1 cells assessed as cell growth at 10^-8 M by sulforhodamine B assay; conditions: read-out: Activity
# [12] = system: MDA-MB-435; test: Growth inhibition of human MDA-MB-435 cells assessed as cell growth at 10^-7 M by sulforhodamine B assay; conditions: read-out: Activity
# [13] = system: SNB-75; test: Growth inhibition of human SNB75 cells assessed as cell growth at 10^-8 M by sulforhodamine B assay; conditions: read-out: Activity
# [14] = system: SNB-19; test: Growth inhibition of human SNB19 cells assessed as cell growth at 10^-7 M by sulforhodamine B assay; conditions: read-out: Activity
# [15] = system: COLO 205; test: Growth inhibition of human COLO205 cells assessed as cell growth at 10^-8 M by sulforhodamine B assay; conditions: read-out: Activity
# [16] = system: SK-MEL-28; test: Growth inhibition of human SK-MEL-28 cells assessed as cell growth at 10^-7 M by sulforhodamine B assay; conditions: read-out: Activity
# [17] = system: A549; test: Growth inhibition of human A549/ATCC cells assessed as cell growth at 10^-4 M by sulforhodamine B assay; conditions: read-out: Activity
# [18] = system: SF-295; test: Growth inhibition of human SF295 cells assessed as cell growth at 10^-4 M by sulforhodamine B assay; conditions: read-out: Activity
# [19] = system: OVCAR-8; test: Growth inhibition of human OVCAR8 cells assessed as cell growth at 10^-8 M by sulforhodamine B assay; conditions: read-out: Activity
# [20] = system: SW-620; test: Growth inhibition of human SW620 cells assessed as cell growth at 10^-7 M by sulforhodamine B assay; conditions: read-out: Activity
# [21] = system: A498; test: Growth inhibition of human A498 cells assessed as cell growth at 10^-6 M by sulforhodamine B assay; conditions: read-out: Activity
# [22] = system: MDA-MB-468; test: Growth inhibition of human MDA-MB-468 cells assessed as cell growth at 10^-6 M by sulforhodamine B assay; conditions: read-out: Activity
# [23] = system: SK-MEL-5; test: Growth inhibition of human SK-MEL-5 cells assessed as cell growth at 10^-8 M by sulforhodamine B assay; conditions: read-out: Activity
# [24] = system: U-251; test: Growth inhibition of human U251 cells assessed as cell growth at 10^-8 M by sulforhodamine B assay; conditions: read-out: Activity
# [25] = system: SF-268; test: Growth inhibition of human SF268 cells assessed as cell growth at 10^-6 M by sulforhodamine B assay; conditions: read-out: Activity
# [26] = system: MCF7; test: Growth inhibition of human MCF7 cells by sulforhodamine B assay
# [27] = system: SF-268; test: Growth inhibition of human SF268 cells by sulforhodamine B assay
# [28] = system: RPMI-8226; test: Growth inhibition of human RPMI8226 cells assessed as cell growth at 10^-4 M by sulforhodamine B assay; conditions: read-out: Activity
# [29] = system: DU-145; test: Growth inhibition of human DU145 cells by sulforhodamine B assay
# [30] = system: TK-10; test: Growth inhibition of human TK10 cells by sulforhodamine B assay
# [31] = system: BT-549; test: Growth inhibition of human BT549 cells by sulforhodamine B assay
# [32] = system: NCI-H23; test: Growth inhibition of human NCI-H23 cells by sulforhodamine B assay
# [33] = Growth inhibition of human Hs 578T cells assessed as cell growth at 10^-4 M by sulforhodamine B assay; conditions: read-out: Activity
# [34] = system: HOP-62; test: Growth inhibition of human HOP62 cells assessed as cell growth at 10^-6 M by sulforhodamine B assay; conditions: read-out: Activity
# [35] = system: PC-3; test: Growth inhibition of human PC3 cells assessed as cell growth at 10^-7 M by sulforhodamine B assay; conditions: read-out: Activity
# [36] = system: TK-10; test: Growth inhibition of human TK10 cells assessed as cell growth at 10^-6 M by sulforhodamine B assay; conditions: read-out: Activity
# [37] = system: TK-10; test: Growth inhibition of human TK10 cells assessed as cell growth at 10^-8 M by sulforhodamine B assay; conditions: read-out: Activity
# [38] = system: OVCAR-5; test: Growth inhibition of human OVCAR5 cells assessed as cell growth at 10^-8 M by sulforhodamine B assay; conditions: read-out: Activity
# [39] = system: OVCAR-4; test: Growth inhibition of human OVCAR4 cells by sulforhodamine B assay
# [40] = system: SF-539; test: Growth inhibition of human SF539 cells assessed as cell growth at 10^-4 M by sulforhodamine B assay; conditions: read-out: Activity
# [41] = read-out: LC50 (the source's name)
# [42] = read-out: pLC50 (the source's name) (converted)
compound,measurement,setting,value
CC(C)=CC(=O)O[C@@H]1CC(C)(C)C[C@H]2C3=CC[C@@H]4[C@@]5(C)CC[C@H](O)C(C)(C)[C@@H]5CC[C@@]4(C)[C@]3(C)CC[C@@]12C(=O)O [Reduced Lantadene B],growth at 0.01 µM,[1],107%
same,growth at 0.1 µM,[2],87%
same,growth at 100 µM,[3],-39%
same,growth at 0.01 µM,[4],93%
same,GI50,[5]; read-out: GI50,4.93 µM
same,CC50,[5]; [41],74.4 µM
same,TGI,[5]; read-out: TGI,22.5 µM
same,GI50,[5]; read-out: pGI50 (converted),4.9 µM
same,CC50,[5]; [42],74.1 µM
same,TGI,[5]; read-out: pTGI (converted),22.4 µM
same,growth at 0.1 µM,[6],85%
same,growth at 0.1 µM,[7],80%
same,growth at 100 µM,[8],-56%
same,GI50,[9]; read-out: GI50,2.83 µM
same,CC50,[9]; [41],41.3 µM
same,TGI,[9]; read-out: TGI,13.7 µM
same,GI50,[9]; read-out: pGI50 (converted),2.82 µM
same,CC50,[9]; [42],41.7 µM
same,TGI,[9]; read-out: pTGI (converted),13.8 µM
same,growth at 0.01 µM,[10],99%
same,growth at 0.01 µM,[11],97%
same,growth at 0.1 µM,[12],97%
same,growth at 0.01 µM,[13],85%
same,growth at 0.1 µM,[14],86%
same,growth at 0.01 µM,[15],107%
same,growth at 0.1 µM,[16],100%
same,growth at 100 µM,[17],-56%
same,growth at 100 µM,[18],-71%
same,growth at 0.01 µM,[19],101%
same,growth at 0.1 µM,[20],95%
same,growth at 1 µM,[21],79%
same,growth at 1 µM,[22],77%
same,growth at 0.01 µM,[23],93%
same,growth at 0.01 µM,[24],96%
same,growth at 1 µM,[25],95%
same,GI50,[26]; read-out: GI50,6.18 µM
same,CC50,[26]; [41],> 100 µM
same,TGI,[26]; read-out: TGI,30.3 µM
same,GI50,[26]; read-out: pGI50 (converted),6.17 µM
same,CC50,[26]; [42],> 100 µM
same,TGI,[26]; read-out: pTGI (converted),30.2 µM
same,GI50,[27]; read-out: GI50,5.87 µM
same,LC50,[27]; read-out: LC50,97.2 µM
same,TGI,[27]; read-out: TGI,26.1 µM
same,GI50,[27]; read-out: pGI50 (converted),5.89 µM
same,LC50,[27]; read-out: pLC50 (converted),97.7 µM
same,TGI,[27]; read-out: pTGI (converted),26.3 µM
same,growth at 100 µM,[28],-19%
same,GI50,[29]; read-out: GI50,7.7 µM
same,CC50,[29]; [41],61.6 µM
same,TGI,[29]; read-out: TGI,23.5 µM
same,GI50,[29]; read-out: pGI50 (converted),7.76 µM
same,CC50,[29]; [42],61.7 µM
same,TGI,[29]; read-out: pTGI (converted),23.4 µM
same,GI50,[30]; read-out: GI50,10.7 µM
same,CC50,[30]; [41],71.6 µM
same,TGI,[30]; read-out: TGI,27.7 µM
same,GI50,[30]; read-out: pGI50 (converted),10.7 µM
same,CC50,[30]; [42],70.8 µM
same,TGI,[30]; read-out: pTGI (converted),27.5 µM
same,GI50,[31]; read-out: GI50,6.61 µM
same,CC50,[31]; [41],72.1 µM
same,TGI,[31]; read-out: TGI,24.2 µM
same,GI50,[31]; read-out: pGI50 (converted),6.61 µM
same,CC50,[31]; [42],72.4 µM
same,TGI,[31]; read-out: pTGI (converted),24 µM
same,GI50,[32]; read-out: GI50,7.24 µM
same,CC50,[32]; [41],84 µM
same,TGI,[32]; read-out: TGI,26.9 µM
same,GI50,[32]; read-out: pGI50 (converted),7.24 µM
same,CC50,[32]; [42],83.2 µM
same,TGI,[32]; read-out: pTGI (converted),26.9 µM
same,growth at 100 µM,[33],-45%
same,growth at 1 µM,[34],88%
same,growth at 0.1 µM,[35],90%
same,growth at 1 µM,[36],86%
same,growth at 0.01 µM,[37],92%
same,growth at 0.01 µM,[38],95%
same,GI50,[39]; read-out: GI50,8.59 µM
same,CC50,[39]; [41],> 100 µM
same,TGI,[39]; read-out: TGI,35.6 µM
same,GI50,[39]; read-out: pGI50 (converted),8.51 µM
same,CC50,[39]; [42],> 100 µM
same,TGI,[39]; read-out: pTGI (converted),35.5 µM
same,growth at 100 µM,[40],-38%
